Source: patent US9708314B2, “Heterocyclic amide compound” (NISSAN CHEMICAL INDUSTRIES, LTD., priority 2013, dated 2017)

What was measured:
Assay type in all cases: in vivo
Lolium multiflorum Lam. = assay: Test Example 4: herbicidal effect by application to foliage (diluvial soil, plastic box); details: application to foliage
In short: (§1)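 Read-out is a 0–5 visual grade of herbicidal ratio (5: ≥90%, almost withered; 0: ≤5%) taken three weeks after treatment. Compound was applied as a diluted emulsion to stem and leaf parts of 14-day greenhouse-grown plants (25° C. to 30° C.) at rates expressed as g/ha.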

Alopecurus myosuroides = assay: as above; details: application to foliage
In short: as §1

Chenopodium album = assay: as above; details: application to foliage
In short: as §1

[1] = test system: Echinochloa crus-galli var. crus-galli; assay: as above; details: application to foliage
In short: as §1

Setaria viridis = assay: as above; details: application to foliage
In short: as §1

Amaranthus retroflexus = assay: as above; details: application to foliage
In short: as §1

Abutilon theophrasti = assay: as above; details: application to foliage
In short: as §1

Galium spurium = assay: as above; details: application to foliage
In short: as §1

Veronica persica = assay: as above; details: application to foliage
In short: as §1

Avena fatua = assay: as above; details: application to foliage
In short: as §1

Digitaria ciliaris = assay: as above; details: application to foliage
In short: as §1

Apera spica-venti. = assay: as above; details: application to foliage
In short: as §1

Stellaria media = assay: as above; details: application to foliage, 320 g/ha
In short: as §1

[2] = test system: directly sowed Oryza sativa; assay: Test Example 4: effect on crop by application to foliage (diluvial soil, plastic box); details: application to foliage
In short: as §1

Zea mays = assay: as above; details: application to foliage
In short: as §1

Triticum aestivum = assay: as above; details: application to foliage
In short: as §1

Glycine max = assay: as above; details: application to foliage
In short: as §1

Brassica campestris L. = assay: as above; details: application to foliage
In short: as §1

[3] = test system: Beta vulgaris ssp. vulgaris; assay: as above; details: application to foliage
In short: as §1

[4] = application herbicide amount 320 g/ha

CN(CCC#N)c1nnc2c(C(=O)Nc3nnnn3C)ccc(C(F)(F)F)n12 [2-095]
herbicidal effect, K (Lolium multiflorum Lam.) (Lolium multiflorum Lam.; 320 g/ha): 3 (Herbicidal ratio of 40% or more and less than 70%) | herbicidal effect, J (Alopecurus myosuroides) (Alopecurus myosuroides; 320 g/ha): 4 (Herbicidal ratio of 70% or more and less than 90%) | herbicidal effect, O (Chenopodium album) (Chenopodium album; 320 g/ha): 5 (Herbicidal ratio of 90% or more (almost completely withered)) | herbicidal effect, H (Echinochloa crus-galli var. crus-galli) ([1]; 320 g/ha): 5 (Herbicidal ratio of 90% or more (almost completely withered)) | herbicidal effect, G (Setaria viridis) (Setaria viridis; 320 g/ha): 5 (Herbicidal ratio of 90% or more (almost completely withered)) | herbicidal effect, N (Amaranthus retroflexus) (Amaranthus retroflexus; 320 g/ha): 5 (Herbicidal ratio of 90% or more (almost completely withered)) | herbicidal effect, M (Abutilon theophrasti) (Abutilon theophrasti; 320 g/ha): 5 (Herbicidal ratio of 90% or more (almost completely withered)) | herbicidal effect, Q (Galium spurium) (Galium spurium; 320 g/ha): 4 (Herbicidal ratio of 70% or more and less than 90%) | herbicidal effect, R (Veronica persica) (Veronica persica; 320 g/ha): 4 (Herbicidal ratio of 70% or more and less than 90%) | herbicidal effect, I (Avena fatua) (Avena fatua; 320 g/ha): 4 (Herbicidal ratio of 70% or more and less than 90%) | herbicidal effect, F (Digitaria ciliaris) (Digitaria ciliaris; 320 g/ha): 5 (Herbicidal ratio of 90% or more (almost completely withered)) | herbicidal effect, L (Apera spica-venti.) (Apera spica-venti.; 320 g/ha): 5 (Herbicidal ratio of 90% or more (almost completely withered)) | herbicidal effect, P (Stellaria media) (Stellaria media): 5 (Herbicidal ratio of 90% or more (almost completely withered)) | effect on crop, d (directly sowed Oryza sativa) ([2]; 320 g/ha): 5 (Herbicidal ratio of 90% or more (almost completely withered)) | effect on crop, b (Zea mays) (Zea mays; 320 g/ha): 5 (Herbicidal ratio of 90% or more (almost completely withered)) | effect on crop, e (Triticum aestivum) (Triticum aestivum; 320 g/ha): 3 (Herbicidal ratio of 40% or more and less than 70%) | effect on crop, c (Glycine max) (Glycine max; 320 g/ha): 1 (Herbicidal ratio of 5% or more and less than 20%) | effect on crop, g (Brassica campestris L.) (Brassica campestris L.; 320 g/ha): 5 (Herbicidal ratio of 90% or more (almost completely withered)) | effect on crop, f (Beta vulgaris ssp. vulgaris) ([3]; 320 g/ha): 5 (Herbicidal ratio of 90% or more (almost completely withered))

O=C(Nc1nnco1)c1ccc(C(F)(F)F)n2c(SCc3ccc(Cl)nc3)nnc12 [1-157]
K: herbicidal effect on Lolium multiflorum Lam. (Lolium multiflorum Lam.; [4]): 1 (Herbicidal ratio of 5% or more and less than 20%) | J: herbicidal effect on Alopecurus myosuroides (Alopecurus myosuroides; [4]): 1 (Herbicidal ratio of 5% or more and less than 20%) | O: herbicidal effect on Chenopodium album (Chenopodium album; [4]): 5 (Herbicidal ratio of 90% or more (almost completely withered)) | H: herbicidal effect on Echinochloa crus-galli var. crus-galli [1, 4]: 3 (Herbicidal ratio of 40% or more and less than 70%) | G: herbicidal effect on Setaria viridis (Setaria viridis; [4]): 1 (Herbicidal ratio of 5% or more and less than 20%) | N: herbicidal effect on Amaranthus retroflexus (Amaranthus retroflexus; [4]): 3 (Herbicidal ratio of 40% or more and less than 70%) | M: herbicidal effect on Abutilon theophrasti (Abutilon theophrasti; [4]): 3 (Herbicidal ratio of 40% or more and less than 70%) | Q: herbicidal effect on Galium spurium (Galium spurium; [4]): 1 (Herbicidal ratio of 5% or more and less than 20%) | R: herbicidal effect on Veronica persica (Veronica persica; [4]): 2 (Herbicidal ratio of 20% or more and less than 40%) | I: herbicidal effect on Avena fatua (Avena fatua; [4]): 1 (Herbicidal ratio of 5% or more and less than 20%) | F: herbicidal effect on Digitaria ciliaris (Digitaria ciliaris; [4]): 3 (Herbicidal ratio of 40% or more and less than 70%) | L: herbicidal effect on Apera spica-venti. (Apera spica-venti.; [4]): 1 (Herbicidal ratio of 5% or more and less than 20%) | b: effect on crop, directly sowed Oryza sativa [2, 4]: 0 (Herbicidal ratio of 5% or less (almost no effect)) | c: effect on crop, Zea mays (Zea mays; [4]): 0 (Herbicidal ratio of 5% or less (almost no effect)) | e: effect on crop, Triticum aestivum (Triticum aestivum; [4]): 1 (Herbicidal ratio of 5% or more and less than 20%) | d: effect on crop, Glycine max (Glycine max; [4]): 3 (Herbicidal ratio of 40% or more and less than 70%) | g: effect on crop, Brassica campestris L. (Brassica campestris L.; [4]): 2 (Herbicidal ratio of 20% or more and less than 40%) | f: effect on crop, Beta vulgaris ssp. vulgaris [3, 4]: 4 (Herbicidal ratio of 70% or more and less than 90%)
